According to patent US20110172305A1, “Endocannabinoids for Enhancing Growth and Development in Infants” (priority 2007, published 2011):

Experiments:
[1] = Body weight of pups raised in small or large (malnourished) litters, daily neonatal injections; assay type: in vivo, mouse (ICR strain)
Procedure: (§1) Using an environmental manipulation technique, within 24 hours of birth, half of each mouse litter (ICR strain) was cross-fostered to the dam of another litter born on the same day. The mouse pups of every two litters were divided up between the 2 dams such that one dam reared 4 pups (‘small litter’) and the other dam raised 18-20 pups (large litter). Pups raised in the large litter were expected to suffer from malnutrition due to the crowded environment. Half of each litter received daily injections of the endocannabinoid 2-arachidonoyl glycerol (2-AG) or THC, the major psychoactive molecule in the Cannabis sativa (marihuana) plant for the first 5 days of life. The doses used were 1 or 5 mg/kg THC or 0.1, 1 or 5 mg/kg 2-AG. Body weights were recorded daily. The body weight of pups from the small and the large litters were analyzed by two-way analysis-of-variance.

[2] = Porsolt forced swim test at adulthood; assay type: in vivo, mouse (ICR strain); settings: treated in infancy, tested at adulthood; FIG. 3A
Excerpt: (§2) At adulthood (3 months of age), mice were subjected to the open field assay for motor activity (ambulation and rearing), to the Porsolt forced swim test for anti-depressant-like effects and to the prepulse-inhibited acoustic startle response (PPI) assay which assesses sensorimotor gating.
Porsolt forced swim test: The forced swimming test was based on previous designs (Harkin et al., 2004; Petit-Demouliere et al., 2005; Treit and Menard, 1998): mice were placed in a 2 liter glass beaker (11 cm diameter) filled with water (24+1° C.) up to […] from the bottom (so that the mouse could not touch the bottom) and 8 cm from the rim (so that the mouse cannot escape). […] Immobility at 9 min was analyzed by a t-test, P<0.05.

[3] = Motor activity (ambulation) in an open field at 3 months of age; assay type: in vivo, mouse (ICR strain); settings: tested at 3 months of age
Procedure: as §2
Motor activity in an Open field: Mice were placed in a transparent open field (30×40 cm, divided into 20 squares of equal size), measuring horizontal (ambulatory) and vertical activity, for 6 minutes (min), by manually scoring the number of squares crossed (see (Fride and Mechoulam, 1993).
The bottom of the open field was divided into 20 squares of equal size. Activity was assessed as the number of squares crossed.

[4] = Prepulse inhibition (PPI) of the acoustic startle response; assay type: in vivo, mouse; settings: treated at birth; FIG. 7
Procedure: Prepulse Inhibition (PPI) of the startle reflex: In this experimental model a weak stimulus (70-90 db tone) inhibits the subsequent response to a strong stimulus (120 db tone). Reduced prepulse inhibition of the startle reflex (PPI) is taken as an additional index of the positive symptoms of schizophrenia (Josselyn and Vaccarino, 1998; Swerdlow and Geyer, 1998). PPI was assessed as described previously (Varty et al., 2001). In the model employed, mice were placed in a startle chamber (Hamilton and Kinder, Poway, Calif., USA). A high frequency loudspeaker produces a 65 db background noise and the various acoustic stimuli: 77 and 81 db prepulse; 120 db startle, separated by 100 ms. The startle response of the mouse is transduced and stored by a computer. Sixty-five readings are taken at 1 ms intervals, and the average amplitude is taken as the startle response. Each test session lasts for about 20 min and consists of 10 presentations of each of the six trial types (Prepulse, Prepulse+Pulse, Pulse or no stimulus other than background) separated by 15 s. The amount of prepulse inhibition is calculated as %PPI=[1-(startle response for Prepulse+Pulse)/(startle response for Pulse alone)]×100.

[5] = Intracerebral versus subcutaneous injection, pup body weight gain; assay type: in vivo, mouse (ICR strain); settings: day 1 of birth, FIG. 8A-E
Procedure: Newborn (day 1 of birth) mouse pups (ICR strain) were injected subcutaneously (sc) with SR141716 (SR, 20 or 40 mg/kg), as described previously (Fride, 2004; Fride et al., 2003; Fride et al., 2001). In addition, littermates were injected with SR directly into the brain, at 2 depths (2-3 mm) and at several doses 4.5, 9.0 or 22.5 μg (between 50 and 10-fold lower concentrations than the sc injections).

[6] = Growth and survival of newborn Spiny wild mice; assay type: in vivo, Spiny wild mice (acomys cahirinus); settings: 50 mg/kg
Excerpt: FIG. 9A illustrates the relative state of maturation in terms of the growth curve during the first two postnatal weeks in laboratory (ICR strain) mice, compared to Spiny wild mice (acomys cahirinus) which is born at a more advanced stage of development. […] This is similar to the difference in brain maturation predicted by the model designed by Clancy and colleagues (Clancy et al., 2007), i.e., the day of birth of the spiny mouse being equivalent to postnatal day 8 in the laboratory mouse.

[7] = Food intake ('milkbands') of pups raised in small or large litters; assay type: in vivo, mouse (ICR strain); settings: THC 1 or 5 mg/kg, daily injections for the first 5 days of life
Procedure: as §1
On each subsequent day, pups were briefly separated from their mothers for the duration of weighing and scoring of the presence of “milkbands” in their stomachs. (As the stomach area in mouse pups is transparent, due to lack of hair and the thinness of the skin, the amount of milk consumed can be observed as a “milkband”).

CCCCC/C=C\C/C=C\C/C=C\C/C=C\CCCC(=O)OC(CO)CO [2-AG, 2-arachidonoyl glycerol]
effect on the growth curve ([1]; 0.1 mg/kg (lowest dose), daily injections for the first 5 days of life): no effect on the growth curve | body weight gain ([1]; 1 mg/kg, daily injections for the first 5 days of life, malnourished (overcrowded) litters, FIG. 1): significantly enhanced body weight gain | effect on the growth curve ([1]; 5 mg/kg (highest dose), daily injections for the first 5 days of life): no effect on the growth curve | body weight at 3 months of age versus control mice from large (malnourished) litter ([1]; treated as neonates, large litter, FIG. 2): still had elevated body weights | body weight at 3 months of age versus vehicle-treated mice raised in small litters ([1]; treated as neonates, overcrowded litter, FIG. 2): did not differ significantly | behavior in the Forced swim test (immobility time) [2]: displayed anti-depressant-like behavior | motor activity in open field (number of squares crossed) ([3]; 2-AG at birth, FIG. 3B): did not differ from that of controls

Cc1c(C(=O)NN2CCCCC2)nn(-c2ccc(Cl)cc2Cl)c1-c1ccc(Cl)cc1 [Rimonabant]
motor activity in open field (number of squares crossed) ([3]; rimonabant at birth, ICR strain, FIG. 6, P<0.001): hyperactive | sensorimotor gating, prepulse inhibition of acoustic startle response (% PPI) versus vehicle control [4]: significantly lower | effect on pup growth ([5]; injected directly into the brain, 2-3 mm depth, 4.5, 9.0 or 22.5 μg): none of the centrally injected regimens had any effect on pup growth | body weight gain ([5]; s.c. 20 or 40 mg/kg): significantly retarded body weight gain | growth (body weight) ([6]; FIG. 9B, P<0.0001): highly significant delay in growth | mortality rate ([6]; FIG. 9C, P<0.01 versus controls): 60%

CCCCCc1cc(O)c2c(c1)OC(C)(C)[C@@H]1CCC(C)=C[C@@H]21 [THC, Δ^9-tetrahydrocannabinol]
effect on the body weight curve ([1]; THC 1 or 5 mg/kg, daily injections for the first 5 days of life): Neither of the doses of THC had an effect | effect on food intake ('milkbands') [7]: Neither of the doses of THC had an effect
